The results in this text go back to patent US20240417405A1, “Substituted Spiro Derivatives” (Janssen Pharmaceutica NV, priority 2021, published 2024).

The subject of experiment [1] is MOLM14 cells. Put plainly: Proliferation assay, spheroid-like growth, MOLM14 (MLL-AF9 rearranged). Type of experiment: cell-based, human. The settings on record: Homo sapiens, MOLM-14, 192 h, 8 days, confluence as measure of spheroid size, read-out: spheroid assay_OneTime MOLM14 IC50. The method, then: The anti-proliferative effect of menin/MLL protein/protein interaction inhibitor test compounds was assessed in human leukemia cell lines. The cell line MOLM14 harbors a MLL translocation and expresses the MLL fusion proteins MLL-AF9, respectively, as well as the wildtype protein from the second allele. […] KO-52 was used as a control cell line containing two MLL (KMT2A) wildtype alleles in order to exclude compounds that display general cytotoxic effects.
MOLM14 cells were cultured in RPMI-1640 (Sigma Aldrich) supplemented with 10% heat-inactivated fetal bovine serum (HyClone), 2 mM L-glutamine (Sigma Aldrich) and 50 μg/ml gentamycin (Gibco). KO-52 cell lines were propagated in alpha-MEM (Sigma Aldrich) supplemented with 20% heat-inactivated fetal bovine serum (HyClone), 2 mM L-glutamine (Sigma Aldrich) and 50 μg/ml gentamycin (Gibco).
In order to assess the anti-proliferative effects, 200 MOLM14 cells, or 300 KO-52 cells were seeded in 200 μl media per well in 96-well round bottom, ultra-low attachment plates (Costar, catalogue number 7007). Cell seeding numbers were chosen based on growth curves to ensure linear growth throughout the experiment. Test compounds were added at different concentrations and the DMSO content was normalized to 0.3%. Cells were incubated for 8 days at 37° C. and 5% CO2. Spheroid like growth was measured in real-time by live-cell imaging (IncuCyteZOOM, Essenbio, 4× objective) acquiring images at day 8. Confluence (%) as a measure of spheroid size was determined using an integrated analysis tool.
In order to determine the effect of the test compounds over time, the confluence in each well as a measure of spheroid size, was calculated. Confluence of the highest dose of a reference compound was used as baseline for the LC (Low control) and the confluence of DMSO treated cells was used as 0% cytotoxicity (High Control, HC).
Absolute IC50 values were calculated as percent change in confluence as follows:
LC=Low Control: cells treated with e.g. 1 μM of the cytotoxic agent staurosporin, or e.g. cells treated with a high concentration of an alternative reference compound
GraphPad Prism (version 7.00) was used to calculate the IC50. Dose-response equation was used for the plot of % Effect vs Log 10 compound concentration with a variable slope and fixing the maximum to 100% and the minimum to 0%.

Experiment [2] addresses T1, menin/MLL (terbium chelate-labeled menin, FITC-MBM1 peptide) (Homo sapiens, UniProt O00255, T541A).
T1 construct: Menin (a.a 1-610-6xhis tag)
T1 sequence (O00255 with tags, fused parts or gaps T541A): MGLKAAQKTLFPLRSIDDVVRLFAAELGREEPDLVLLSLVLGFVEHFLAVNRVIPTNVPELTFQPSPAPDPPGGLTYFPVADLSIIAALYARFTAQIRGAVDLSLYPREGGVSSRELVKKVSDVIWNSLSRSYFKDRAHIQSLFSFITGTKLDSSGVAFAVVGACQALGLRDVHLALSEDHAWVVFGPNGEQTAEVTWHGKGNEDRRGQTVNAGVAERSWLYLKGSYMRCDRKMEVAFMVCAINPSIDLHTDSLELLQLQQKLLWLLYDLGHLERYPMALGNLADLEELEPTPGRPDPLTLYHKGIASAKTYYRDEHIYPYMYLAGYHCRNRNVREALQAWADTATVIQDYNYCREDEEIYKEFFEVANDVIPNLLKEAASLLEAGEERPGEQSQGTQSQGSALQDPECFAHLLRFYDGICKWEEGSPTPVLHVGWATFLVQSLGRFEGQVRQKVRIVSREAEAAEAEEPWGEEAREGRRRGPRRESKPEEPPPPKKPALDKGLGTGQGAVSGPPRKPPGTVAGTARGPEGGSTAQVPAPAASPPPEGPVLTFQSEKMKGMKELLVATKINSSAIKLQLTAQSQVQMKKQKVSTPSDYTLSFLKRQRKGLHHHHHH
Put plainly: Menin/MLL homogenous time-resolved fluorescence (HTRF) assay. To be noted: 30 min incubation. Type of experiment: binding. As for the experimental part:
1) Menin/MLL Homogenous Time-Resolved Fluorescence (HTRF) Assay
To an untreated, white 384-well microtiter plate was added 40 nL 200× test compound in DMSO and 4 μL 2× terbium chelate-labeled menin (vide infra for preparation) in assay buffer (40 mM Tris.HCl, pH 7.5, 50 mM NaCl, 1 mM DTT (dithiothreitol) and 0.05% Pluronic F-127). After incubation of test compound and terbium chelate-labeled menin for 30 min at ambient temperature, 4 μL 2× FITC-MBM1 peptide (FITC-β-alanine-SARWRFPARPGT-NH2 (SEQ ID NO: 3)) (“FITC” means fluorescein isothiocyanate) in assay buffer was added, the microtiter plate centrifuged at 1000 rpm for 1 min and the assay mixtures incubated for 15 min at ambient temperature. The relative amount of menin FITC-MBM1 complex present in an assay mixture is determined by measuring the homogenous time-resolved fluorescence (HTRF) of the terbium/FITC donor/acceptor fluorophore pair using an EnVision microplate reader (ex. 337 nm/terbium em. 490 nm/FITC em. 520 nm) at ambient temperature. The degree of fluorescence resonance energy transfer (the HTRF value) is expressed as the ratio of the fluorescence emission intensities of the FITC and terbium fluorophores (F^em 520 nm/F^em 490 nm). The final concentrations of reagents in the binding assay are 200 pM terbium chelate-labeled menin, 75 nM FITC-MBM1 peptide and 0.5% DMSO in assay buffer. Dose-response titrations of test compounds are conducted using an 11 point, four-fold serial dilution scheme, starting typically at 10 μM.
Compound potencies were determined by first calculating % inhibition at each compound concentration according to equation 1:
% inhibition=((HC−LC)−(HTRF^compound−LC))/(HC−LC))*100 (Eqn 1)
Where LC and HC are the HTRF values of the assay in the presence or absence of a saturating concentration of a compound that competes with FITC-MBM1 for binding to menin, and HTRF^compound is the measured HTRF value in the presence of the test compound. HC and LC HTRF values represent an average of at least 10 replicates per plate.
% inhibition=Bottom+(Top−Bottom)/(1+10^((logIC50−log[cmpd])*h)) (Eqn 2)
Where Bottom and Top are the lower and upper asymptotes of the dose-response curve, respectively, IC50 is the concentration of compound that yields 50% inhibition of signal and h is the Hill coefficient. IC50 values below 0.1 nM in the HTRF assay were reported as 0.1 nM in the Table below (detection limit).
Preparation of Terbium cryptate labeling of Menin: Menin (a.a 1-610-6xhis tag (“6xhis tag” disclosed as SEQ ID NO: 2), 2.3 mg/mL in 20 mM Hepes (2-[4-(2-Hydroxyethyl)-1-piperazinyl]ethane sulfonic acid), 80 mM NaCl, 5 mM DTT (Dithiothreitol), pH 7.5) was labeled with terbium cryptate as follows. 200 μg of Menin was buffer exchanged into 1× Hepes buffer. 6.67 μM Menin was incubated with 8-fold molar excess NHS (N-hydroxysuccinimide)-terbium cryptate for 40 minutes at room temperature. Half of the labeled protein was purified away from free label by running the reaction over a NAP5 column with elution buffer (0.1 M Hepes, pH 7+0.1% BSA (bovine serum albumin)). The other half was eluted with 0.1 M phosphate buffered saline (PBS), pH7. 400 μl of eluent was collected for each, aliquoted and frozen at −80° C. The final concentration of terbium-labeled Menin protein was 115 μg/mL in Hepes buffer and 85 μg/mL in PBS buffer, respectively.

Broadly, the IC50 is the concentration that gives 50% inhibition. As for `CC(C)C([C@H]1C[C@@H](N2CC[C@@](C)(O)C2)C1)N1CC2(CCN(c3ncnnc3Oc3ccc(F)cc3-c3cnccc3C3CC3)C2)C1` (mixture of isomers) [Compound 137], the IC50 in experiment [1] is 7 nM; in experiment [2], 0.2 nM.

As to `CC(C)[C@H]([C@H]1C[C@@H](N2CCC(C(=O)N(C)C)C2)C1)N1CC2(CCN(c3ncnnc3Oc3ccc(F)cc3-c3cncnc3C3CC3)C2)C1` (mixture of isomers) [Compound 210], the IC50 in experiment [1] was 5 nM; in experiment [2], 0.1 nM.

On to `COC1(C)CCN([C@H]2C[C@@H]([C@H](C(C)C)N3CC4(CCN(c5ncnnc5Oc5ccc(F)cc5-c5nnccc5C5CC5)C4)C3)C2)C1` (mixture of isomers) [Compound 275], for which the IC50 in experiment [1] is 7 nM; in experiment [2] it was 0.1 nM.

Regarding `Cc1ncc(-c2cc(F)ccc2Oc2nncnc2N2CCC3(C2)CN([C@@H](C(C)C)[C@H]2C[C@@H](N4CC5COCC5C4)C2)C3)c(C2CC2)n1` (mixture of isomers) [Compound 379], the IC50 in experiment [1] turned out to be 1.9 nM; in experiment [2], 0.11 nM.

Consider `Cc1nnc(C2CC2)n1-c1cc(F)ccc1Oc1nncnc1N1CCC2(C1)CN([C@H](C(C)C)C1CC(N(C)C)C1)C2` (mixture of isomers) [Compound 502, N,N-dimethyl-3-[(1R)-1-[7-[6-[2-(3-cyclopropyl-5-methyl-1,2,4-triazol-4-yl)-4-fluoro-phenoxy]-1,2,4-triazin-5-yl]-2,7-diazaspiro[3.4]octan-2-yl]-2-methyl-propyl]cyclobutanamine], for which the IC50 in experiment [1] came out at 32 nM; in experiment [2], 0.12 nM.

In the case of `CC(=O)N1CCN([C@H]2C[C@H]([C@H](C(C)C)N3CC4(CCN(c5ncnnc5Oc5ccc(F)cc5-c5cnncc5C5CC5)C4)C3)C2)CC1` (single isomer, unassigned) [Compound 105], half-maximal inhibition in experiment [2] (IC50) required 1 nM.

In experiment [2], `CC(C)[C@H]([C@H]1C[C@@H](N2CC3(CCC(=O)N3C)C2)C1)N1CC2(CCN(c3ncnnc3Oc3ccc(F)cc3-c3cncnc3C3CC3)C2)C1` (single isomer, unassigned) [Compound 316] displayed an IC50 of 4.9 nM.

Take `CC(C)[C@@H](C1CN(CC2COC2)C1)N1CC2(CCN(c3ncnnc3Oc3ccc(F)cc3-c3cncnc3C3CC3)C2)C1` (single isomer, unassigned) [Compound 353]: half-maximal inhibition in experiment [2] (IC50) required 0.5 nM.

Consider `C[C@@H]([C@H]1C[C@@H](NC(=O)C2CC2)C1)N1CC2(CCN(c3ncnnc3Oc3ccc(F)cc3-c3cncnc3C3CC3)C2)C1` (single isomer, unassigned) [Compound 444], for which inhibition in experiment [2] was half-maximal at 0.16 nM (IC50).

The compound `C[C@@H]([C@H]1C[C@@H](NC(=O)C2(F)CC2)C1)N1CC2(CCN(c3ncnnc3Oc3ccc(F)cc3-c3cncnc3C3CC3)C2)C1` (single isomer, unassigned) [Compound 456] showed a half-inhibitory concentration (IC50) in experiment [2] of 0.53 nM.

As for `CNC(=O)c1nccc(N[C@H]2C[C@@H]([C@@H](C(C)C)N3CC4(CCN(c5ncnnc5Oc5ccc(F)cc5-c5cncnc5C5CC5)C4)C3)C2)n1` (single isomer, unassigned) [Compound 457], it took 0.29 nM to reach half-maximal inhibition in experiment [2] (IC50).

The compound `CNC(=O)c1nc(N[C@H]2C[C@@H](C(C(C)C)N3CC4(CCN(c5ncnnc5Oc5ccc(F)cc5-c5cncnc5C5CC5)C4)C3)C2)oc1C` (single isomer, unassigned) [Compound 459] yielded an IC50 in experiment [2] of 0.06 nM.

Compound `COC(=O)c1nccc(N[C@H]2C[C@@H](C(C(C)C)N3CC4(CCN(c5ncnnc5Oc5ccc(F)cc5-c5cncnc5C5CC5)C4)C3)C2)n1` (single isomer, unassigned) [Compound 489] displayed an IC50 in experiment [2] of 0.22 nM.

In turn, `Cc1noc(C2CC2)c1-c1cc(F)ccc1Oc1nncnc1N1CCC2(C1)CN([C@H](C(C)C)[C@H]1C[C@@H](N(C)C)C1)C2` (single isomer, unassigned) [Compound 503] came in with an IC50 in experiment [2] of 0.18 nM.

On to `CC(=O)N[C@H]1C[C@@H](C(C(C)C)N2CC3(CCN(c4ncnnc4Oc4ccc(F)cc4-c4ccnnc4C4CC4)C3)C2)C1` (some centres unmarked) [Compound 182], for which, in experiment [2], the IC50 is 0.6 nM.

Take `CC(C)C(C1CCN(CC2COC2)CC1)N1CC2(CCN(c3ncnnc3Oc3ccc(F)cc3-c3nccnc3C3CC3)C2)C1` (centres unmarked) [Compound 202]: in experiment [2], the IC50 worked out at 0.7 nM.

In the case of `Cc1noc(C2CC2)c1-c1cc(F)ccc1Oc1nncnc1N1CCC2(C1)CN([C@H](C(C)C)[C@H]1C[C@@H](NC(=O)OC(C)(C)C)C1)C2` [Compound 504, tert-butyl N-[3-[(1R)-1-[7-[6-[2-(5-cyclopropyl-3-methyl-isoxazol-4-yl)-4-fluoro-phenoxy]-1,2,4-triazin-5-yl]-2,7-diazaspiro[3.4]octan-2-yl]-2-methyl-propyl]cyclobutyl]carbamate], the IC50 in experiment [2] amounted to 0.58 nM.

As to `Cc1noc(C2CC2)c1-c1cc(F)ccc1Oc1nncnc1N1CCC2(C1)CN([C@H](C(C)C)C1CC(NC(=O)OC(C)(C)C)C1)C2` (stereo partly drawn) [Compound 505, tert-butyl N-[3-[(1R)-1-[7-[6-[2-(5-cyclopropyl-3-methyl-isoxazol-4-yl)-4-fluoro-phenoxy]-1,2,4-triazin-5-yl]-2,7-diazaspiro[3.4]octan-2-yl]-2-methyl-propyl]cyclobutyl]carbamate], it took 0.54 nM to reach half-maximal inhibition in experiment [2] (IC50).
